System: 4T1 tumor
Test: 4T1 tumor model: ENPP1 inhibition with IR, cGAMP and anti-CTLA-4
Type: in vivo, mouse
Conditions: 20 Gy IR then intratumoral 10 μg cGAMP on day 2, 4, 7

## Nc1nc2c(ncn2[C@@H]2O[C@@H]3COP(=O)(O)O[C@H]4[C@@H](O)[C@H](n5cnc6c(N)ncnc65)O[C@@H]4COP(=O)(O)O[C@@H]2[C@@H]3O)c(=O)[nH]1 [cGAMP, cyclic guanosine monophosphate-adenosine monophosphate]
  effect over IR treatment: had no effect over IR treatment

— patent US11707471B2, “ENPP1 inhibitors and their use for the treatment of cancer” (The Board of Trustees of the Leland Stanford Junior …, priority 2017, dated 2023)
